Literature values as cited in US8568779B2, “Method for producing coenzyme Q10 particle” (Kaneka Corporation, priority 2007, dated 2013).

Conditions: composition containing reduced coenzyme Q10 versus oxidized coenzyme Q10 alone

COc1c(O)c(C)c(C/C=C(\C)CC/C=C(\C)CC/C=C(\C)CC/C=C(\C)CC/C=C(\C)CC/C=C(\C)CC/C=C(\C)CC/C=C(\C)CC/C=C(\C)CCC=C(C)C)c(O)c1OC [reduced coenzyme Q10]
oral absorbability: superior to conventional oxidized coenzyme Q10 alone
